Data reported in ChEMBL document CHEMBL1201862, “PubChem BioAssay data set” (2004).
Activity calls are given as the source filed them.

Tests used:
Protein skinhead-1 = molecular target: T1, Protein skinhead-1 (Caenorhabditis elegans, UniProt P34707); type: functional
T1 sequence (P34707 whole entry): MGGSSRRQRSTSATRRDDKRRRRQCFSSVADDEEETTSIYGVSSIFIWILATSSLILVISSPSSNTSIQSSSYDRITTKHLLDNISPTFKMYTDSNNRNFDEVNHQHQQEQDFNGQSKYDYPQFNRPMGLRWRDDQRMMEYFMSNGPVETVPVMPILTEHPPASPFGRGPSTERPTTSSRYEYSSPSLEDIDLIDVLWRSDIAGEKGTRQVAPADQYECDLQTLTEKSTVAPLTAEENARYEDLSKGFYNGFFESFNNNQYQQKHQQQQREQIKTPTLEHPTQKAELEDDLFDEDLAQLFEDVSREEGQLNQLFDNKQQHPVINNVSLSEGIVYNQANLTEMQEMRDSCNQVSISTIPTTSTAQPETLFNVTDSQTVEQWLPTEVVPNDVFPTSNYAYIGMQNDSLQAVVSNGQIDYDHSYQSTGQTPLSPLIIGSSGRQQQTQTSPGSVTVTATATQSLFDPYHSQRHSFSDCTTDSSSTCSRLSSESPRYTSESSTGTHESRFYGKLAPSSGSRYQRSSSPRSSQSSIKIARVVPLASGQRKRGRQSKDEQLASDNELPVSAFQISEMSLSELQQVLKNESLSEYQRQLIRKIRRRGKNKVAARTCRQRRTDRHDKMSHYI

[1] = Luminescence Cell-Based Dose Confirmation HTS to Identify Inhibitors of Platelet Dense Granule Release. [Related pubchem assays: 1663 (Primary HTS), 1678 (Summary of Project)]; type: functional
[2] = molecular target: Luciferin 4-monooxygenase (Photinus pyralis, UniProt P08659); assay: firefly luciferase enzyme inhibitors, dose response, biochemical, luminescence (AID 1891)
Sequence of Luciferin 4-monooxygenase (P08659 whole entry): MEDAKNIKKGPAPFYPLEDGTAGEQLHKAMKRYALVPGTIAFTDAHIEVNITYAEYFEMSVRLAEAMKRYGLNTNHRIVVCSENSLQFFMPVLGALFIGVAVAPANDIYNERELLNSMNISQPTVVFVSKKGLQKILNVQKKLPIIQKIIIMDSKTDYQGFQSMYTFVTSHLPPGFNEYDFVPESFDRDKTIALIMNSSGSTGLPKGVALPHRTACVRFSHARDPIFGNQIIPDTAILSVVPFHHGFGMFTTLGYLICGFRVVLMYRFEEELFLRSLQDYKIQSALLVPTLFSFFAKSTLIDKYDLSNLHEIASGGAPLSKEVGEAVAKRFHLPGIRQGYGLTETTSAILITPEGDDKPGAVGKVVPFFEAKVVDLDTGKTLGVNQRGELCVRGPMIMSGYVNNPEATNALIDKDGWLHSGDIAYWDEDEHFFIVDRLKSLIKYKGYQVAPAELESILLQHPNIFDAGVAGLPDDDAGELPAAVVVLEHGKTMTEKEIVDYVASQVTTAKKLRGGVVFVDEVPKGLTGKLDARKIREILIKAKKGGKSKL

cells = type: functional
[3] = cytotoxicity toward NIH3T3 fibroblasts, dose response, counter-screen, cell-based, ATP luminescence, mouse fibroblasts (AID 2010); type: functional;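 also: cells exposed to compound for about 90 hours before reading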
[4] = inhibitors of intracellular T. cruzi replication, confirmation, NIH3T3 host cells, beta-gal luminescence (AID 2044); type: functional, cell-based;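 also: intracellular parasites grown in NIH/3T3 mouse fibroblasts as host cells; luminescent beta-galactosidase reporter signal from transgenic T. cruzi replicating inside host cells; inhibitors lower the luminescence signal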
Genome polyprotein = Genome polyprotein (dengue virus type 2, UniProt P29990); assay: Dengue-2 NS5 methyltransferase inhibitors, primary screen, biochemical, confirmation dose response (AID 588689); type: functional
Sequence of Genome polyprotein (P29990 2492-3391 limits assumed): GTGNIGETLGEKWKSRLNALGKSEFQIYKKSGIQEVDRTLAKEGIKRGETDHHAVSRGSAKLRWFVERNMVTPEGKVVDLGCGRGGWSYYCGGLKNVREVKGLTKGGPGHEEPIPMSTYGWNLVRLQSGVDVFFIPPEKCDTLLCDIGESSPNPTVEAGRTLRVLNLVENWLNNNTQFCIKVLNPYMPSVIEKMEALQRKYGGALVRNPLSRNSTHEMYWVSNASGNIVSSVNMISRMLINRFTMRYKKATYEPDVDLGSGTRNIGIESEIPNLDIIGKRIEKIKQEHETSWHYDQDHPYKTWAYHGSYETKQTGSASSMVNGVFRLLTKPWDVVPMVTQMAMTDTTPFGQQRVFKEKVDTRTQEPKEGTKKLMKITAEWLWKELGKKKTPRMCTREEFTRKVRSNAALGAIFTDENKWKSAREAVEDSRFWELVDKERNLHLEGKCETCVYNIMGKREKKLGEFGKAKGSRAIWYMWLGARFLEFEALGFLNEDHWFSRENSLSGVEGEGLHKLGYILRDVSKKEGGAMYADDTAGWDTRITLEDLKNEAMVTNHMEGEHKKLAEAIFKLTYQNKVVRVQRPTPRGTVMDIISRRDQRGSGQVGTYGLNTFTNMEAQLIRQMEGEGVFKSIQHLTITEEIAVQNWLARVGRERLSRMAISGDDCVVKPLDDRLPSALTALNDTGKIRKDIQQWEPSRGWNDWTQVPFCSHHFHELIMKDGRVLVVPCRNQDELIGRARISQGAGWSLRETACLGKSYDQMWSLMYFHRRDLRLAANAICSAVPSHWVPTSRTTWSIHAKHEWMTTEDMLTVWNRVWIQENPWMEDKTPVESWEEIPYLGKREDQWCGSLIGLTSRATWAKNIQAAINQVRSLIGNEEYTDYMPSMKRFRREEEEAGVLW

[5] = molecular target: FAD-linked sulfhydryl oxidase ALR (Homo sapiens, UniProt P55789); assay: inhibitors of human ALR sulfhydryl oxidase, dose response, biochemical, H2O2 detection, luminescence, cherry-pick (AID 493248)
Sequence of FAD-linked sulfhydryl oxidase ALR (P55789 whole entry): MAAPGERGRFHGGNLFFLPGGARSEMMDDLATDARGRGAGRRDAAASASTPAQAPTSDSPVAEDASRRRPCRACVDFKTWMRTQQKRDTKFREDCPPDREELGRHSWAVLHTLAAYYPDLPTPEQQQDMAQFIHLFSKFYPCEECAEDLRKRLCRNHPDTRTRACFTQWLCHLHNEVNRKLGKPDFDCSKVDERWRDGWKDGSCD

[6] = inhibitors of SNCA 5'UTR-driven reporter translation, confirmation, H4 neuroglioma cells, luminescence (AID 1988); type: functional, cell-based
[7] = Luminescence Cell-Based Dose Response HTS to Identify Inhibitors of 5'UTR Stem-Loop Driven Prion Protein mRNA Translation in H4 Neuroglioblastoma Cells. [Related pubchem assays: 1827 (Project Summary), 1813 (Primary HTS)]; type: functional
[8] = HepG2 cell cytotoxicity, dose response, cytotoxicity control for Shn3 inhibitor project, CellTiter-Glo, cherry-picked (AID 624134); type: functional, cell-based
[9] = control 3'UTR Renilla luciferase suppression, dose response, counter-screen for Shn3 inhibitor project, cell-based, Clone20-Shn3RL, cherry-picked (AID 624133); type: functional
[10] = growth suppression of beta-catenin-knockout colon cells, dose response, cell-based, HCT116, human colon tumor (AID 1045); type: functional;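 also: HCT116 colon tumor cells with beta catenin knocked out; cells exposed to compound for 60 hours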
[11] = growth suppression of PTEN-null colon cells, dose response, cell-based, HCT116 PTEN knockout (AID 1047); type: functional;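 also: HCT116 colon tumor cells with PTEN knocked out; cells exposed to compound for 60 hours before readout; potency for loss of cell viability measured by luminescence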
[12] = molecular target: T2, Corticotropin-releasing factor receptor 2/Corticotropin-releasing factor-binding protein (Homo sapiens, UniProt P24387+Q13324); assay: Dose Response confirmation of uHTS hits for small molecule antagonists of the CRF-binding protein and CRF-R2 receptor complex.; type: functional; details: read-out: IC50_Mean
T2 sequence (Q13324 whole entry): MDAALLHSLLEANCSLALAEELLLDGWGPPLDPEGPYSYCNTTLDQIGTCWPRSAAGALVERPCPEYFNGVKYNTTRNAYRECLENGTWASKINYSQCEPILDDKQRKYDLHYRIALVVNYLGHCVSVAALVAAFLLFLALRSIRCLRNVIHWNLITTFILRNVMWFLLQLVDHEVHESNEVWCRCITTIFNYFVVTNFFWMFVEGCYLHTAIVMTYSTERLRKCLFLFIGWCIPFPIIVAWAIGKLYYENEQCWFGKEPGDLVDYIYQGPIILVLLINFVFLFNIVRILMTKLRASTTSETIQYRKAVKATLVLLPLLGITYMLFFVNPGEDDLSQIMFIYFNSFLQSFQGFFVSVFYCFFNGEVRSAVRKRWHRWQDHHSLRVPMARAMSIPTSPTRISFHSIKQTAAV
T2 sequence (P24387 whole entry): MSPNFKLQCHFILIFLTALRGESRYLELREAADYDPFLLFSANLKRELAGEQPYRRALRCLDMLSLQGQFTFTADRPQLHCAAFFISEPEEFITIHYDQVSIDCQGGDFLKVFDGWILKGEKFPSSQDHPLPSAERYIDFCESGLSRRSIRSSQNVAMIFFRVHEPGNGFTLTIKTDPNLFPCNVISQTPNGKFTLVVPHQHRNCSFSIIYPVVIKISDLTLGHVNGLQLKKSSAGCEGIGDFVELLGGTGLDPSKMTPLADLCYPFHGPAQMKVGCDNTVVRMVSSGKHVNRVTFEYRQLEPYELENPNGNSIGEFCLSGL

Cytochrome P450 2D6 = Cytochrome P450 2D6 (Homo sapiens, UniProt P10635);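 also: CYP2D6 member of a cytochrome P450 panel assay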
Sequence of Cytochrome P450 2D6 (P10635 whole entry): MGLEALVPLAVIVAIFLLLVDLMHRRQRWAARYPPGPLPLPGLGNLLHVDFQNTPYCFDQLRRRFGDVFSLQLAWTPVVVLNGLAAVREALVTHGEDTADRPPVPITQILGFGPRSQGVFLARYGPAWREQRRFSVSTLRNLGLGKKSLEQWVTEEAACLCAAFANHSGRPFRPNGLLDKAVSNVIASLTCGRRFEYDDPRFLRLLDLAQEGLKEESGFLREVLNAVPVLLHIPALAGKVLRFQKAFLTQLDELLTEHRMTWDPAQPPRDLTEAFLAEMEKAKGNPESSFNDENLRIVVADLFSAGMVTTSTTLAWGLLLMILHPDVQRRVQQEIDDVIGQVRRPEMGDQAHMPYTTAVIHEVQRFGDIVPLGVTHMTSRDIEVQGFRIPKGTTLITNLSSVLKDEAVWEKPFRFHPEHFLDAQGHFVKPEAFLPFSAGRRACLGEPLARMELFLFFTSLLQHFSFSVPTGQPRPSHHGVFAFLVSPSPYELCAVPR

[13] = molecular target: T2, Corticotropin-releasing factor receptor 2/Corticotropin-releasing factor-binding protein; assay: activators of CRF receptor 2 with binding protein – uHTS hits, confirmation (AID 602473); type: functional; details: read-out: EC50_Mean
[14] = HEp-2 cell cytotoxicity, dose response, cytotoxicity control for RSV inhibitor project, HTS (AID 2410); type: functional; details: human respiratory syncytial virus

## Clc1ccc(-c2nnc(-c3ccccc3)c(N3CCSCC3)n2)cc1
Protein skinhead-1
  IC50: > 100 µM (inactive)

## CCN(C(=O)CN1C(=O)S/C(=C\c2cccc(Cl)c2)C1=O)C1CCS(=O)(=O)C1 (stereo unspecified)
Protein skinhead-1
  IC50: > 100 µM (inactive)

## COc1ccc(C(=O)Nc2sc(C)c(C)c2CN2CCOCC2)cc1
[1]
  EC50: 12.6 µM (active)
[2]
  EC50: > 112 µM (not active)

## CCN(CC)C(=O)CSc1ncnc2c(-c3ccc(OC)cc3)nsc12
[1]
  EC50: > 112 µM (not active)
[2]
  EC50: > 112 µM (not active)

## Clc1ncc(CSc2ccccc2)s1
Protein skinhead-1
  IC50: 84.8 µM (inactive)

## COc1ccc(-c2nnc(NC(=O)C3=COCCO3)o2)cc1
cells
  IC50: 8.62 µM (active)

## O=C(Nc1cnn(Cc2c(Cl)cccc2Cl)c1)C(c1ccccc1)c1ccccc1
[3]
  EC50: > 60 µM (not active)
[4]
  EC50: 2.06 µM (active)
[1]
  EC50: > 112 µM (not active)
[2]
  EC50: > 112 µM (not active)

## COc1cccc(N2CCN(Cc3cccc(Cl)c3)CC2)c1
[1]
  EC50: > 112 µM (not active)
[2]
  EC50: > 112 µM (not active)

## C=CCc1cc(C=C2C(=O)NC(=O)NC2=O)cc(OC)c1OCc1ccc(C(=O)O)cc1
Genome polyprotein
  IC50: 29.1 µM (active)

## CCOc1ccc(-c2cc(C(=O)NCC3CCCO3)c3ccccc3n2)cc1 (stereo unspecified)
[1]
  EC50: > 112 µM (not active)
[2]
  EC50: 47.2 µM (active)

## O=C(O)c1ccc(Cl)c(S(=O)(=O)Nc2ccc(S(=O)(=O)Nc3cccc(Cl)c3)cc2)c1
Genome polyprotein
  IC50: 65.7 µM (active)

## Cn1c(=O)oc2cc(S(=O)(=O)N3CCN(c4cccc(Cl)c4)CC3)ccc21
[1]
  EC50: > 112 µM (not active)
[2]
  EC50: > 112 µM (not active)

## C=CCN1C(=O)NC(=O)/C(=C\c2ccc(-c3ccccc3[N+](=O)[O-])o2)C1=O
[5]
  AC50: 0.507 µM (active)
Genome polyprotein
  IC50: 25.2 µM (active)

## CN1C(c2ccccc2)CC(=NO)CC1c1ccccc1 (stereo unspecified)
cells
  IC50: 16.6 µM (active)

## O=C1NC(=O)N(c2ccccc2)C(=O)/C1=C\c1ccccc1[N+](=O)[O-]
Genome polyprotein
  IC50: 38.5 µM (active)

## COc1cccc(C2=NN(C(C)=O)C(c3cccs3)C2)c1 (stereo unspecified)
Protein skinhead-1
  IC50: > 100 µM (inactive)

## O=C(COc1ncnc2c(Cl)cc(Cl)cc12)N1CCCCC1
Protein skinhead-1
  IC50: > 100 µM (inactive)

## COc1cccc(-c2nn(-c3ccccc3)cc2C(=O)O)c1
[1]
  EC50: > 112 µM (not active)
[2]
  EC50: > 112 µM (not active)

## O=[N+]([O-])c1c(O)nc(O)nc1/C=C/c1ccc(Cl)cc1Cl
Genome polyprotein
  IC50: 49.1 µM (active)

## CC(C)c1nnc(NC(=O)CCC(=O)N2CCN(c3ccc(F)cc3)CC2)s1
[1]
  EC50: > 112 µM (not active)
[2]
  EC50: > 112 µM (not active)

## CCOC(=O)c1c(C)c(-c2ccccc2)n(CC(=O)N2CCCC2)c1C
[1]
  EC50: > 112 µM (not active)
[2]
  EC50: > 112 µM (not active)

## O=C(/C=C/Nc1ccc(Br)cc1F)c1ccco1
Protein skinhead-1
  IC50: 15.4 µM (active)
[1]
  EC50: 8.72 µM (active)
[6]
  EC50: 4.41 µM (active)
[7]
  EC50: 3.64 µM (active)
[2]
  EC50: 0.482 µM (active)

## Nc1nc(S)nc2c1C1(CCCCC1)Cc1ccccc1-2
[8]
  AC50: > 70 µM (inactive)
[9]
  AC50: 25 µM (active)

## C#CCOc1ccc(/C=C2/C(=O)ON=C2C)cc1Br
Genome polyprotein
  IC50: 80.7 µM (active)

## O=[N+]([O-])c1cc(N=Nc2ccc3ccccc3c2)ccc1O
[1]
  EC50: 2.24 µM (active)
cells
  IC50: > 50 µM (active)
[2]
  EC50: 0.173 µM (active)

## CCOC(=O)C(C)Oc1cccc2c(=O)n(CC(=O)NCCc3ccc(OC)c(OC)c3)ccc12 (stereo unspecified)
[1]
  EC50: > 112 µM (not active)
[2]
  EC50: > 112 µM (not active)

## COc1ccccc1CNC(=O)c1cccc(N(C)C)c1
[1]
  EC50: > 112 µM (not active)
[2]
  EC50: > 112 µM (not active)

## Cc1ccc(C)c(NC(=O)c2cc3ccccc3o2)c1
Protein skinhead-1
  IC50: > 100 µM (inactive)

## CCOC(=O)COc1ccc2c(c1)c(C(C)=O)c(C)n2Cc1ccccc1
cells
  IC50: 7.41 µM (active)

## CCCCOC(=O)c1ccc(NC(=O)c2nn(C)cc2Br)cc1
cells
  IC50: 12.2 µM (active)

## CCCCn1c(SCN2C(=O)c3ccccc3C2=O)nc2cc(S(N)(=O)=O)ccc21
[1]
  EC50: > 112 µM (not active)
[2]
  EC50: > 112 µM (not active)

## Cc1cc(F)ccc1NC(=O)c1cc(S(=O)(=O)N2CCCC2)cn1C
[1]
  EC50: > 112 µM (not active)
[2]
  EC50: > 112 µM (not active)

## O=C1N(c2ccc3c(c2)OCCO3)C(c2ccccc2)C1(F)F (stereo unspecified)
cells
  IC50: 7.43 µM (active)

## CCOC(=O)c1csc(-c2snnc2C)n1
cells
  IC50: 13.2 µM (active)

## Cc1ccc(C(=O)N2CCN(c3ccc([N+](=O)[O-])c(NCc4ccco4)c3)CC2)cc1
[1]
  EC50: > 112 µM (not active)
[2]
  EC50: 41.3 µM (active)

## COc1cc2c(cc1OC)-c1cc(NC3CC3)nc(=O)n1CC2
[1]
  EC50: 17.6 µM (active)
[2]
  EC50: > 112 µM (not active)

## O=C(NC1CS(=O)(=O)CC1NCc1ccccc1)c1ccccc1 (stereo unspecified)
Protein skinhead-1
  IC50: > 100 µM (inactive)

## CCCCC1(CCCC)C(=O)N=C(Nc2cccc(C)c2)NC1=O
[10]
  EC50: 12.2 µM (active)
[11]
  EC50: 12.1 µM (active)
[12]
  IC50: > 47.1 µM (inactive)
Cytochrome P450 2D6
  AC50: 14.1 µM (inconclusive)
[13]
  EC50: 3.98 µM (active)

## COc1cc2ccccc2cc1C(=O)Nc1ccncc1
Protein skinhead-1
  IC50: 52.3 µM (inactive)

## CN(Cc1cnccn1)C(=O)CC1C(=O)NCCN1Cc1cccc(Oc2ccccc2)c1 (stereo unspecified)
[1]
  EC50: > 112 µM (not active)
[2]
  EC50: > 112 µM (not active)

## c1ccc2c(c1)NC(c1ccncc1)n1c-2nc2ccccc21 (stereo unspecified)
Protein skinhead-1
  IC50: > 100 µM (inactive)

## COc1ccc(C(=O)CCN2CCCCCC2)cc1
[10]
  EC50: 124 µM (active)
cells
  IC50: 22.2 µM (active)

## Fc1ccc(-c2nnn(Cc3nc4ccccc4s3)n2)cc1
Protein skinhead-1
  IC50: 80.1 µM (inactive)

## Cc1ncsc1CCOC(=O)c1ccc([N+](=O)[O-])cc1
cells
  IC50: 7.56 µM (active)

## Cc1c(-c2nc(-c3cccnc3)no2)cccc1[N+](=O)[O-]
Protein skinhead-1
  IC50: > 100 µM (inactive)

## Cc1ccccc1OCC(=O)OCC(=O)c1ccc[nH]1
cells
  IC50: 20.3 µM (active)

## O=C(COC(=O)[C@@H]1CCCN1C(=O)c1cccs1)NCCc1ccccc1
Protein skinhead-1
  IC50: > 100 µM (inactive)

## O=Nc1c(O)ccc2cc(S(=O)(=O)O)ccc12
Genome polyprotein
  IC50: 45.7 µM (active)

## Clc1cccc(-c2nc3ccc(Br)cn3c2Cc2ccsc2)c1
Protein skinhead-1
  IC50: 54.8 µM (inactive)

## O=C(O)CN1C(=O)C=CC1=O
Genome polyprotein
  IC50: > 100 µM (active)

## CN(C)C(=O)c1cccc(-c2cnc3c(NC=O)cc(-c4ccc(N(C)C)cc4)cn23)c1
Protein skinhead-1
  IC50: > 100 µM (inactive)

## Cc1ccc(-c2nc3ccc(C(=O)O)cc3nc2-c2ccc(C)cc2)cc1
[14]
  CC50: 19.4 µM (active)
Genome polyprotein
  IC50: 55.3 µM (active)

## CCc1nnc(N/N=C/c2ccc(-c3ccc([N+](=O)[O-])cc3)o2)n1N
cells
  IC50: 12.6 µM (active)

## O=C(Nc1nccs1)c1ccccn1
cells
  IC50: 9.47 µM (active)
